What follows are compounds tested against T1, TNIK (Homo sapiens, UniProt Q9UKE5) (assay: ADP-Glo Kinase Assay, inhibition activity on TNIK). Conditions: not given.
T1 construct: purchased Promega V4158
Type: biochemical
Experimental: The inhibition activities on TNIK, IKKε and TBK1 were measured by a luminometer, TNIK/IKKε/TBK1 Kinase Enzyme System (Promega, Ca# V4158; Invitrogen, PR8031B, Promega, Ca# V3991) and ADP-Glo Kinase Assay using ADP-Glo™ Kinase Analysis Kit (Promega, Ca# V9101) and a kinase reaction buffer [40 mM Tris(pH 7.5), 20 mM MgCl2, 0.1 mg/mL BSA] in accordance with the manufacturer's protocol.

T1 sequence (Q9UKE5 1-367 limits assumed): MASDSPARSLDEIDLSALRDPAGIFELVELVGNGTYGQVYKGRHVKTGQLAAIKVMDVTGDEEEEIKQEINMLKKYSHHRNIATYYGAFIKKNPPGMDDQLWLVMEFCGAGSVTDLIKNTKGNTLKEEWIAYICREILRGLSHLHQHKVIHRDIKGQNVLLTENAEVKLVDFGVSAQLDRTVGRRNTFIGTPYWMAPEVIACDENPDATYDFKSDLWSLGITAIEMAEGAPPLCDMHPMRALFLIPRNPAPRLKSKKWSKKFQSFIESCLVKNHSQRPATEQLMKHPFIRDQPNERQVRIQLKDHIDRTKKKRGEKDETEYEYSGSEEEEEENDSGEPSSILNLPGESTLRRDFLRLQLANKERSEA

| SMILES | TNIK (μM) |
| --- | --- |
| O=C(Nc1ccc(-c2cccc(O)c2O)c2c1C(=O)NC2)c1ccc(F)cc1 [Example 189, N-(7-(2,3-dihydroxyphenyl)-3-oxoisoindolin-4-yl)-4-fluorobenzamide] | Insoluble |
| Cc1nc2cccc(-c3ccc(NC(=O)c4ccc(F)cc4)c4c3CNC4=O)c2o1 [Example 194, 4-Fluoro-N-(7-(2-methylbenzo[d]oxazol-7-yl)-3-oxoisoindolin-4-yl)benzamide] | Insoluble |
| O=C(Nc1ccc(-c2ccc(F)nc2)c2c1C(=O)NC2)c1ccccc1 [Example 199, N-(7-(6-fluoropyridin-3-yl)-3-oxoisoindolin-4-yl)benzamide] | Insoluble |
| COc1ccc(-c2ccc(NC(=O)c3ccccc3)c3c2CNC3=O)cn1 [Example 200, N-(7-(6-methoxypyridin-3-yl)-3-oxoisoindolin-4-yl)benzamide] | Insoluble |

Same assay, conditions: read-out: TNIK

| SMILES | IC50 [µM] |
| --- | --- |
| CCCCC(=O)Nc1ccc(-c2ccccc2)c2c1C(=O)NC2 [Example 159, N-(3-oxo-7-phenylisoindolin-4-yl)pentanamide] | 1.8 |
| CC(=O)Nc1ccc(-c2ccccc2)c2c1C(=O)NC2 [Example 160, N-(3-oxo-7-phenylisoindolin-4-yl)acetamide] | 1.1 |
| CS(=O)(=O)c1ccc(-c2ccc(NC(=O)c3ccccc3)c3c2CNC3=O)cc1 [Example 167, N-(7-(4-(methylsulfonyl)phenyl)-3-oxoisoindolin-4-yl) benzamide] | 9.8 |
| CS(=O)(=O)c1cccc(-c2ccc(NC(=O)c3ccccc3)c3c2CNC3=O)c1 [Example 168, N-(7-(3-(methylsulfonyl)phenyl)-3-oxoisoindolin-4-yl) benzamide] | > 20 |
| CC(=O)Nc1cccc(-c2ccc(NC(=O)c3ccccc3)c3c2CNC3=O)c1 [Example 169, N-(7-(3-acetamidophenyl)-3-oxoisoindolin-4-yl)benzamide] | 4.2 |
| O=C(Nc1ccc(-c2ccccc2)c2c1C(=O)NC2)c1ccc(Cl)s1 [Example 170, 5-Chloro-N-(3-oxo-7-phenylisoindolin-4-yl)thiophene-2-carboxamide] | 3.52 |
| COc1cccc(-c2ccc(NC(=O)c3ccccc3)c3c2CNC3=O)c1OC [Example 171, N-(7-(2,3-dimethoxyphenyl)-3-oxoisoindolin-4-yl)benzamide] | 0.057 |
| COc1cc(OC)cc(-c2ccc(NC(=O)c3ccccc3)c3c2CNC3=O)c1 [Example 172, N-(7-(3,5-dimethoxyphenyl)-3-oxoisoindolin-4-yl)benzamide] | > 20 |
| O=C(Nc1ccc(C2CC2)c2c1C(=O)NC2)c1ccccc1 [Example 173, N-(7-cyclopropyl-3-oxoisoindolin-4-yl)benzamide] | 0.75 |
| O=C(Nc1ccc(-c2ccccc2Cl)c2c1C(=O)NC2)c1ccccc1 [Example 174, N-(7-(2-chlorophenyl)-3-oxoisoindolin-4-yl)benzamide] | > 20 |
| COc1ccc(-c2ccc(NC(=O)c3ccccc3)c3c2CNC3=O)c(OC)c1 [Example 175, N-(7-(2,4-dimethoxyphenyl)-3-oxoisoindolin-4-yl)benzamide] | 3 |
| COc1ccc(-c2ccc(NC(=O)c3ccccc3)c3c2CNC3=O)cc1OC [Example 176, N-(7-(3,4-dimethoxyphenyl)-3-oxoisoindolin-4-yl)benzamide] | > 20 |
| CCOc1cccc(-c2ccc(NC(=O)c3ccccc3)c3c2CNC3=O)c1 [Example 177, N-(7-(3-ethoxyphenyl)-3-oxoisoindolin-4-yl)benzamide] | 8.1 |
| COc1ccc(OC)c(-c2ccc(NC(=O)c3ccccc3)c3c2CNC3=O)c1 [Example 178, N-(7-(2,5-dimethoxyphenyl)-3-oxoisoindolin-4-yl)benzamide] | > 20 |
| O=C(Nc1ccc(-c2ccc(Cl)cc2)c2c1C(=O)NC2)c1ccccc1 [Example 179, N-(7-(4-chlorophenyl)-3-oxoisoindolin-4-yl)benzamide] | > 20 |
| O=C(Nc1ccc(-c2cccc(Cl)c2)c2c1C(=O)NC2)c1ccccc1 [Example 180, N-(7-(3-chlorophenyl)-3-oxoisoindolin-4-yl)benzamide] | 13.7 |
| CCOc1ccc(-c2ccc(NC(=O)c3ccccc3)c3c2CNC3=O)cc1 [Example 181, N-(7-(4-ethoxyphenyl)-3-oxoisoindolin-4-yl)benzamide] | > 20 |
| CCOc1ccccc1-c1ccc(NC(=O)c2ccccc2)c2c1CNC2=O [Example 182, N-(7-(2-ethoxyphenyl)-3-oxoisoindolin-4-yl)benzamide] | 2.8 |
| N#Cc1ccccc1-c1ccc(NC(=O)c2ccccc2)c2c1CNC2=O [Example 183, N-(7-(2-cyanophenyl)-3-oxoisoindolin-4-yl)benzamide] | 1.7 |
| CCCCOc1ccc(-c2ccc(NC(=O)c3ccccc3)c3c2CNC3=O)cc1 [Example 184, N-(7-(4-butoxyphenyl)-3-oxoisoindolin-4-yl)benzamide] | > 20 |
| CN(C)c1ccccc1-c1ccc(NC(=O)c2ccccc2)c2c1CNC2=O [Example 185, N-(7-(2-(dimethylamino)phenyl)-3-oxoisoindolin-4-yl) benzamide] | 2.8 |
| O=C(Nc1ccc(-c2ccc(OC(F)(F)F)cc2)c2c1C(=O)NC2)c1ccccc1 [Example 186, N-(3-oxo-7-(4-(trifluoromethoxy)phenyl)isoindolin-4-yl) benzamide] | > 20 |
| COc1cccc(OC)c1-c1ccc(NC(=O)c2ccccc2)c2c1CNC2=O [Example 187, N-(7-(2,6-dimethoxyphenyl)-3-oxoisoindolin-4-yl)benzamide] | 2.2 |
| CCCc1ccc(-c2ccc(NC(=O)c3ccccc3)c3c2CNC3=O)cc1 [Example 188, N-(3-oxo-7-(4-propylphenyl)isoindolin-4-yl)benzamide] | > 20 |
| COc1cccc(-c2ccc(NC(=O)c3ccc(F)cc3)c3c2CNC3=O)c1O [Example 190, 4-Fluoro-N-(7-(2-hydroxy-3-methoxyphenyl)-3-oxoisoindolin-4-yl)benzamide] | 0.52 |
| O=C(Nc1ccc(-c2cccs2)c2c1C(=O)NC2)c1ccc(F)cc1 [Example 191, 4-Fluoro-N-(3-oxo-7-(thiophen-2-yl)isoindolin-4-yl)benzamide] | 13.3 |
| Cc1ccc(C(=O)Nc2ccc(-c3ccccc3)c3c2C(=O)NC3)o1 [Example 192, 5-Methyl-N-(3-oxo-7-phenylisoindolin-4-yl)furan-2-carboxamide] | 0.73 |

Second part, the compound after the results:

| IC50 [µM] | SMILES |
| --- | --- |
| 1.45 | O=C(Nc1ccc(-c2cccc3ncoc23)c2c1C(=O)NC2)c1ccc(F)cc1 [Example 193, N-(7-(benzo[d]oxazol-7-yl)-3-oxoisoindolin-4-yl)-4-fluorobenzamide] |
| > 20 | O=C(Nc1ccc(-c2ccc(CN3CCCC3)s2)c2c1C(=O)NC2)c1ccccc1 [Example 195, N-(3-oxo-7-(5-(pyrrolidin-1-ylmethyl)thiophen-2-yl)isoindolin-4-yl)benzamide] |
| 17.7 | O=C(Nc1ccc(-c2ccc(CN3CCCCC3)s2)c2c1C(=O)NC2)c1ccccc1 [Example 196, N-(3-oxo-7-(5-(piperidin-1-ylmethyl)thiophen-2-yl)isoindolin-4-yl)benzamide] |
| > 20 | O=C(Nc1ccc(-c2ccc(CN3CCOCC3)s2)c2c1C(=O)NC2)c1ccccc1 [Example 197, N-(7-(5-(morpholinomethyl)thiophen-2-yl)-3-oxoisoindolin-4-yl)benzamide] |
| > 20 | CC(C)(C)OC(=O)N1CCN(Cc2ccc(-c3ccc(NC(=O)c4ccccc4)c4c3CNC4=O)s2)CC1 [Example 198, tert-Butyl 4-((5-(7-benzamido-1-oxoisoindolin-4-yl)thiophen-2-yl)methyl)piperazine-1-carboxylate] |
| 15.2 | O=C(Nc1ccc(-c2ccccc2)c2c1C(=O)NC2)c1ccccc1Cl [Example 201, 2-Chloro-N-(3-oxo-7-phenylisoindolin-4-yl)benzamide] |
| > 20 | COc1cccc(C(=O)Nc2ccc(-c3ccccc3)c3c2C(=O)NC3)c1 [Example 202, 3-Methoxy-N-(3-oxo-7-phenylisoindolin-4-yl)benzamide] |
| 0.35 | O=C(Nc1ccc(-c2ccccc2)c2c1C(=O)NC2)c1cccs1 [Example 203, N-(3-oxo-7-phenylisoindolin-4-yl)thiophene-2-carboxamide] |
| > 20 | COc1ccc(C(=O)Nc2ccc(-c3ccc(C(C)=O)cc3)c3c2C(=O)NC3)cc1 [Example 204, N-(7-(4-acetylphenyl)-3-oxoisoindolin-4-yl)-4-methoxy benzamide] |
| > 20 | O=C(Nc1ccc(-c2ccc(F)cc2)c2c1C(=O)NC2)c1ccccc1 [Example 205, N-(7-(4-fluorophenyl)-3-oxoisoindolin-4-yl)benzamide] |
| > 20 | N#Cc1ccc(-c2ccc(NC(=O)c3ccccc3)c3c2CNC3=O)cc1 [Example 207, N-(7-(4-cyanophenyl)-3-oxoisoindolin-4-yl)benzamide] |
| > 20 | N#Cc1ccc(C(=O)Nc2ccc(-c3ccccc3)c3c2C(=O)NC3)cc1 [Example 208, 4-Cyano-N-(3-oxo-7-phenylisoindolin-4-yl)benzamide] |
| 2.8 | Cc1ccc(-c2ccc(NC(=O)c3ccccc3)c3c2CNC3=O)cc1 [Example 209, N-(3-oxo-7-(p-tolyl)isoindolin-4-yl)benzamide] |
| > 20 | O=C(Nc1ccc(-c2ccc(C(F)(F)F)cc2)c2c1C(=O)NC2)c1ccccc1 [Example 210, N-(3-oxo-7-(4-(trifluoromethyl)phenyl)isoindolin-4-yl) benzamide] |
| 0.7 | O=C(Nc1ccc(-c2ccccc2)c2c1C(=O)NC2)c1ccncc1 [Example 211, N-(3-oxo-7-phenylisoindolin-4-yl)isonicotinamide] |
| 0.3 | O=C(Nc1ccc(-c2ccccc2)c2c1C(=O)NC2)c1ccco1 [Example 212, N-(3-oxo-7-phenylisoindolin-4-yl)furan-2-carboxamide] |
| 0.6 | O=C(Nc1ccc(-c2ccccc2)c2c1C(=O)NC2)c1cccnc1 [Example 213, N-(3-oxo-7-phenylisoindolin-4-yl)nicotinamide] |

From patent US9856216B2, “Compounds as TNIK, IKKε and TBK1 inhibitors and pharmaceutical composition comprising same” (GREEN CROSS CORPORATION, priority 2015, dated 2018)
